Data from paper PMC5601486, “Identification of 4-phenylquinolin-2(1H)-one as a specific allosteric inhibitor of Akt” (Scientific Reports, 2017).

Legend:
Assay in all cases: KINOMEscan
Conditions in all cases: 50000 nM
[1] = test system: ACVR1
Description: KINOMEscan™ selectivity screen
(§1) The assay was perfor med at DiscoveRx Corporation according the methods published previously5. Briefly, Kinase-tagged T7 phage strains were grown in parallel in an E. coli host derived from the BL21 strain. E. coli were grown to log-phase and infected with T7 phage from a frozen stock and incubated with shaking at 32°C until lysis (90-150 minutes). The kinases were produced in HEK-293 cells and subsequently tagged with DNA for qPCR detection. Streptavidin-coated magnetic beads were treated with biotinylated small molecule ligands to generate affinity resins for kinase
(§2) inhibitor or DMSO control was performed in polypropylene 384-well plates for 1 hr at room temperature. After wash with PBS buffer containing 0.05% Tween 20, the beads were incubated in elution buffer (PBS containing 0.05 % Tween 20 and 0.5 μM non-biotinylated affinity ligand) for 30 minutes at room temperature. The kinase concentration in the eluates was measured by qPCR.

[2] = test system: DMPK
Description: KINOMEscan™ selectivity screen
as §1, §2

[3] = test system: EGFR(G719S)
Description: KINOMEscan™ selectivity screen
as §1, §2

[4] = test system: EIF2AK1
Description: KINOMEscan™ selectivity screen
as §1, §2

[5] = test system: MYLK2
Description: KINOMEscan™ selectivity screen
as §1, §2

[6] = test system: NEK5
Description: KINOMEscan™ selectivity screen
as §1, §2

[7] = test system: PIK3CA(M1043I)
Description: KINOMEscan™ selectivity screen
as §1, §2

[8] = test system: PLK1
Description: KINOMEscan™ selectivity screen
as §1, §2

[9] = test system: EPHA5
Description: KINOMEscan™ selectivity screen
as §1, §2

[10] = test system: ERK2
Description: KINOMEscan™ selectivity screen
as §1, §2

[11] = test system: NIK
Description: KINOMEscan™ selectivity screen
(§3) Briefly, Kinase-tagged T7 phage strains were grown in parallel in an E. coli host derived from the BL21 strain. E. coli were grown to log-phase and infected with T7 phage from a frozen stock and incubated with shaking at 32°C until lysis (90-150 minutes). The kinases were produced in HEK-293 cells and subsequently tagged with DNA for qPCR detection.
(§4) After wash with PBS buffer containing 0.05% Tween 20, the beads were incubated in elution buffer (PBS containing 0.05 % Tween 20 and 0.5 μM non-biotinylated affinity ligand) for 30 minutes at room temperature. The kinase concentration in the eluates was measured by qPCR.

[12] = test system: TAOK2
Description: KINOMEscan™ selectivity screen
as §3, §4

[13] = test system: TSSK1B
Description: KINOMEscan™ selectivity screen
as §3, §4

[14] = test system: TXK
Description: KINOMEscan™ selectivity screen
as §1, §2

[15] = test system: TYRO3
Description: KINOMEscan™ selectivity screen
as §1, §2

[16] = test system: YANK3
Description: KINOMEscan™ selectivity screen
as §1, §2

[17] = test system: YES
Description: KINOMEscan™ selectivity screen
as §1, §2

[18] = test system: CLK3
Description: KINOMEscan™ selectivity screen
(§5) Briefly, Kinase-tagged T7 phage strains were grown in parallel in an E. coli host derived from the BL21 strain. E. coli were grown to log-phase and infected with T7 phage from a frozen stock and incubated with shaking at 32°C until lysis (90-150 minutes). The kinases were produced in HEK-293 cells and subsequently tagged with DNA for qPCR detection. Streptavidin-coated magnetic beads were treated with biotinylated small molecule ligands to generate affinity resins for kinase
as §2

[19] = test system: EGFR(L858R,T790M)
Description: KINOMEscan™ selectivity screen
as §1, §2

[20] = test system: STK35
Description: KINOMEscan™ selectivity screen
as §5, §2

[21] = test system: CDKL3
Description: KINOMEscan™ selectivity screen
as §5, §2

[22] = test system: DCAMKL1
Description: KINOMEscan™ selectivity screen
as §1, §2

[23] = test system: QSK
Description: KINOMEscan™ selectivity screen
as §1, §2

[24] = test system: KIT(D816H)
Description: as §5, §2

[25] = test system: IKK-beta
Description: KINOMEscan™ selectivity screen
as §1, §2

[26] = test system: MAPKAPK5
Description: KINOMEscan™ selectivity screen
as §1, §2

[27] = test system: PDPK1
Description: KINOMEscan™ selectivity screen
as §1, §2

[28] = test system: PFTAIRE2
Description: KINOMEscan™ selectivity screen
as §1, §2

[29] = test system: ROCK2
Description: KINOMEscan™ selectivity screen
as §1, §2

[30] = test system: PLK2
Description: KINOMEscan™ selectivity screen
as §5, §2

[31] = test system: KIT-autoinhibited
Description: KINOMEscan™ selectivity screen
as §1, §2

[32] = test system: NEK2
Description: KINOMEscan™ selectivity screen
as §1, §2

[33] = test system: IGF1R
Description: KINOMEscan™ selectivity screen
(§6) The assay was perfor med at DiscoveRx Corporation according the methods published previously5. […] The kinases were produced in HEK-293 cells and subsequently tagged with DNA for qPCR detection. Streptavidin-coated magnetic beads were treated with biotinylated small molecule ligands to generate affinity resins for kinase
as §2

[34] = test system: BRAF(V600E)
Description: KINOMEscan™ selectivity screen
as §1, §2

[35] = test system: EGFR(L861Q)
Description: KINOMEscan™ selectivity screen
as §5, §2

[36] = test system: PIP5K1A
[37] = test system: PRKG1
Description: KINOMEscan™ selectivity screen
as §1, §2

[38] = test system: RSK3(Kin.Dom.1-N-terminal)
Description: KINOMEscan™ selectivity screen
as §5, §2

[39] = test system: PAK2
Description: KINOMEscan™ selectivity screen
as §1, §2

[40] = test system: SIK
Description: KINOMEscan™ selectivity screen
as §1, §2

[41] = test system: ABL1(F317L)-phosphorylated
Description: KINOMEscan™ selectivity screen
as §1, §2

[42] = test system: CLK2
Description: KINOMEscan™ selectivity screen
as §1, §2

[43] = test system: PIM3
Description: KINOMEscan™ selectivity screen
as §1, §2

[44] = test system: SGK2
Description: KINOMEscan™ selectivity screen
as §5, §2

[45] = test system: TNIK
Description: KINOMEscan™ selectivity screen
as §5, §2

[46] = test system: MET(Y1235D)
Description: KINOMEscan™ selectivity screen
as §5, §2

[47] = test system: MST3
Description: KINOMEscan™ selectivity screen
as §1, §2

[48] = test system: HASPIN
Description: KINOMEscan™ selectivity screen
as §1, §2

[49] = test system: LRRK2
Description: KINOMEscan™ selectivity screen
as §1, §2

[50] = test system: CAMK1B
Description: KINOMEscan™ selectivity screen
as §6, §2

[51] = test system: SRPK1
Description: KINOMEscan™ selectivity screen
as §1, §2

[52] = test system: ERK8
Description: KINOMEscan™ selectivity screen
as §1, §2

[53] = test system: TTK
Description: KINOMEscan™ selectivity screen
as §5, §2

[54] = test system: CSNK1E
Description: KINOMEscan™ selectivity screen
as §1, §2

SMILES: Oc1cc(-c2ccccc2)c2ccccc2n1 [G7, 4-phenylquinolin-2(1H)-one]
- Percent Control [1]: 100%
- Percent Control [2]: 100%
- Percent Control [3]: 100%
- Percent Control [4]: 100%
- Percent Control [5]: 100%
- Percent Control [6]: 100%
- Percent Control [7]: 100%
- Percent Control [8]: 100%
- Percent Control [9]: 95%
- Percent Control [10]: 93%
- Percent Control [11]: 93%
- Percent Control [12]: 93%
- Percent Control [13]: 93%
- Percent Control [14]: 93%
- Percent Control [15]: 93%
- Percent Control [16]: 93%
- Percent Control [17]: 93%
- Percent Control [18]: 92%
- Percent Control [19]: 90%
- Percent Control [20]: 90%
- Percent Control [21]: 89%
- Percent Control [22]: 87%
- Percent Control [23]: 85%
- Percent Control [24]: 84%
- Percent Control [25]: 83%
- Percent Control [26]: 81%
- Percent Control [27]: 81%
- Percent Control [28]: 81%
- Percent Control [29]: 81%
- Percent Control [30]: 78%
- Percent Control [31]: 77%
- Percent Control [32]: 77%
- Percent Control [33]: 76%
- Percent Control [34]: 71%
- Percent Control [35]: 71%
- Percent Control [36]: 70%
- Percent Control [37]: 70%
- Percent Control [38]: 69%
- Percent Control [39]: 68%
- Percent Control [40]: 65%
- Percent Control [41]: 64%
- Percent Control [42]: 64%
- Percent Control [43]: 64%
- Percent Control [44]: 62%
- Percent Control [45]: 60%
- Percent Control [46]: 59%
- Percent Control [47]: 59%
- Percent Control [48]: 57%
- Percent Control [49]: 55%
- Percent Control [50]: 52%
- Percent Control [51]: 47%
- Percent Control [52]: 46%
- Percent Control [53]: 24%
- Percent Control [54]: 15%
